Data reported in patent publication US6864217B2, “Herbicidal compositions with substituted phenylsulfonylureas for controlling weeds in rice” (Hoechst Schering AgrEvo GmbH, priority 1998, dated 2005).
Counter-ions that a name gives are not always drawn.

Assays:
Format in all cases: in vivo
Cyperus irria = assay: Table 3 field trial, treatment at the 2 leaf stage weed grasses: weed control; conditions: 28 days after application
Method: (§2) The examples mentioned below were carried out in the greenhouse, and in some instances, in field trials.

Cyperus serotinus = assay: Table 19 field trial, treatment at the 2 leaf stage: weed control; conditions: 14 days after application
Source text: Field trial: Treatment at the 2 leaf stage, evaluation 14 days after the application.

Scirpus maritimus = assay: Table 15 greenhouse trial, treatment at the 2-3 leaf stage: weed control; conditions: 20 days after application
Method: (§1) Seeds or rhizome pieces of mono- and dicotyledonous weed plants are placed into sandy loam soil in plastic pots, covered with soil and grown in a greenhouse under good growth conditions (temperature, atmospheric humidity, water supply). Weeds which are encountered in the cultivation of rice are cultivated in pots in which the water level is up to 2 cm over the soil surface. Three weeks after sowing, the test plants are treated at the three-leaf stage. The active compound combinations according to the invention, formulated as wettable powders or emulsion concentrates, and, in parallel experiments, the correspondingly formulated individual active compounds are sprayed onto the green parts of the plants at different dosages using an amount of water of 300 to 600 l/ha (converted), and, after about 3 to 4 weeks of the test plants in the greenhouse under optimum growth conditions (temperature, atmospheric humidity, water supply), the effect of the preparations is evaluated visually in comparison to untreated controls. In the case of rice or weeds which are encountered in the cultivation of rice, the active compounds are also added directly to the water for irrigation (application analogous to the so-called granules application) or sprayed onto plants and added to the water for irrigation. The experiments were designed with several, up to five, repetitions. The herbicidal compositions according to the invention also have good herbicidal post-emergence activity against a broad spectrum of economically important weed grasses and broad-leaved weeds.

Oryza sativa = assay: Table 15 greenhouse trial, treatment at the 2-3 leaf stage: rice damage; conditions: 20 days after application
Method: as §1

Echinochloa crusgalli = assay: Table 4 field trial: weed control
Method: as §2

`COC(=O)c1ccc(I)cc1S(=O)(=O)NC(=O)Nc1nc(C)nc(OC)n1` [A1*), Sodium salt of methyl 4-iodo-2-[3-(4-methoxy-6-methyl-1,3,5-triazin-2-yl)ureidosulfonyl]benzoate] showed a CYPIR % control (Cyperus irria; 0.75 g of ai/ha) of 40%, a CYPIR % control (Cyperus irria; 1.5 g of ai/ha) of 67% and a CYPIR % control (Cyperus irria; 2.5 g of ai/ha) of 87%. It also gave a CYPSE % control (Cyperus serotinus; 1.5 g of ai/ha) of 10%, a CYPSE % control (Cyperus serotinus; 3 g of ai/ha) of 30% and an SCIMA % control (Scirpus maritimus; 1.25 g of ai/ha) of 35%. It also gave an SCIMA % control (Scirpus maritimus; 2.5 g of ai/ha) of 40%, an SCIMA % control (Scirpus maritimus; 5 g of ai/ha) of 45% and an ORYSW % damage (Oryza sativa; 1.25 g of ai/ha) of 5%. The ORYSW % damage (Oryza sativa; 2.5 g of ai/ha) was 10%, the ORYSW % damage (Oryza sativa; 5 g of ai/ha) was 10% and the ECHCG % control (Echinochloa crusgalli; 1.25 g of ai/ha) was 0%. The ECHCG % control (Echinochloa crusgalli; 2.5 g of ai/ha) was 0% and the ECHCG % control (Echinochloa crusgalli; 5 g of ai/ha) was 0%.
